Experimental data taken from patent US20250009702A1 (SICHUAN JIUZHANG BIOLOGICAL SCIENCE AND TECHNOLOGY CO., LTD., priority 2021, published 2025).

Experiments:
[1] = test system: pfeiffer cancer cells (diffuse large B-cell lymphoma cell line); assay: MTS assay of the in vitro inhibitory effect on DLBCL cells (pfeiffer); format: cell-based; details: for OD value Mean / OD value 1 / OD value 2 / OD value 3: MTS, 490 nm; for OD value 1: well 1; for OD value 2: well 2; for OD value 3: well 3
Protocol: 2.2 MTS Assay of the In Vitro Inhibitory Effect of the Treatment Group on DLBCL Cells (Pfeiffer)
The cells in logarithmic growth phase were digested with 0.25% trypsin, washed with the basic medium, and centrifuged (1000 r/min, twice in 5 minutes). The cells were suspended with complete medium, and the cell concentration was adjusted to […], which was inoculated into a 96-well plate at 50 μl/well (6×10^3 cells/well).
The next day, after the cells adhered to the wall, the drug was given to each group and then incubated for 48 h at a constant temperature of 37° C. under 5% CO2. The dosage for each well is 100 μl. For the blank group, no cell was inoculated, and an equal amount of medium (100 μl) was added; the negative control group received an equal amount of medium (100 μl) after cell inoculation, and 3 wells were set for one group.
20 μl of MTS was added to each well. The plate was further cultivated for 3 h for color development, and then shaken for 10 seconds before testing, to mix well.
The OD value was determined at a wavelength of 490 nm using an enzyme-linked immunosorbent assay (ELISA), and the OD value of the blank control was adjusted to 0.

[2] = test system: DLBCL in the orbit (DLBCL pfeiffer cell lines); assay: In vivo treatment of DLBCL in the orbit (pfeiffer transplanted tumor model)
Protocol: DLBCL pfeiffercell lines were purchased from ATCC, USA.
(§1) BALB/c mice: 60 mice, half male and half female, 3-4 weeks old, weighing 15-22 g, purchased from the Experimental Animal Management Center of West China Medical Center.
The cells were thawed in a 37° C. water bath according to the method provided by ATCC, and cultured in RPMI-1640 medium. The medium was exchanged or the cells were passaged every 1-2 days. When the cells were in a stable proliferative state, the cells with good vitality were selected from the 2nd to 3rd generations and counted under a microscope using a cell counting board. The concentration of inoculate cells was adjusted to 1.5×10^8/ml, and sealed for later use.
The tumor cell suspension inoculation method was used. Before cell inoculation, all mice were subjected to cesium-137 radiation to further immunosuppress and improve the success rate of inoculation. Tumor cells were inoculated within 6 hours after irradiation. After disinfecting with 75% alcohol around the eyes, 0.1 ml of tumor cell suspension was drawn using an 1 ml empty needle, and injected into the orbit through the skin of the upper temporal eyelid. […] After inoculation, high-pressure sterilized water containing 100000 U/L of gentamicin was given for one week to prevent infection. 5% glucose with egg yolk was orally administered daily to enhance nutrition. The growth state of mice and local tumor growth was observed every day.
The drug preparation was formulated prior to daily administration, and given for 14 days.
(§2) During the administration period, the growth of the mouse tumor, eating, activity, and other adverse reactions were observed and recorded every other day. After 14 days of administration, the mice were euthanized using cervical dislocation method, and their body weight and tumor size were measured and recorded according to the pre-administration numbers. The tumor inhibition rate (%) was calculated based on tumor weight.

[3] = test system: DLBCL in the brain (DLBCL Ly8 cell lines); assay: In vivo treatment of DLBCL in the brain (Ly8 transplanted tumor model); details: i.p. 3 mg/kg once every two days
Text: DLBCL Ly8 cell lines were purchased from the Cancer Hospital of Fudan University, which were suspended, cultured, and passaged in 10% calf serum DMEM complete medium, with stable growth. Cells in the logarithmic growth phase were collected, centrifuged, counted, and diluted to 10^4/μl for later use. Cells were inoculated at 2×10^4 cells/animal.
as §1
The mice were anesthetized by intraperitoneal injection of 1% pentobarbital sodium (0.2 μl), fixed on a stereotactic device, and disinfected with 2% chlorhexidine iodine solution on the skin of skull part. The injection site of the syringe was 0.1 cm to the left or right of the midline of the skull, and 0.3 cm in front of the coronal suture in mice. The microsyringe was sequentially penetrated through the skin and skull of the mouse skull part, and was fixed about 1-2 mm into the skull. 2 μl of Ly8 cell suspension was slowly injected (about 2×10^4 cells), and the injection was performed within 15 minutes, followed by leaving the needle for 5 minutes to allow the cells to fully attach, and then slowly removing the needle. […] During sleep after anesthesia, the mice were kept at 30° C. for 2 h. After anesthesia wore off, the mice were placed at room temperature of 25° C., and the surface changes were observed 24 h after inoculation. The following symptoms were observed: topical protrusion on the injection side, body emaciation, lethargy, and decreased mobility.
The mice in the above test drug groups receiving the prepared drug were administered by intraperitoneal injection at 0.2 mL/10 g body weight. The drug preparation was formulated prior to daily administration, and given for 14 days.
as §2

[4] = Homo sapiens, 10 μg/ml, 48 h, pfeiffer cells, read-out: Inhibition rate (%)
[5] = i.p. 3 mg/kg once every two days, 14 days

O=C(/C=C/c1ccc(O)c(O)c1)O[C@@H]1C[C@](O)(C(=O)O)C[C@@H](O)[C@H]1O [CHA, Chlorogenic acid]
OD value Mean ([1]; 5 μg/ml, 48 h): 1.263 | OD value 1 ([1]; 5 μg/ml, 48 h): 1.335 | OD value 2 ([1]; 5 μg/ml, 48 h): 1.221 | OD value 3 ([1]; 5 μg/ml, 48 h): 1.233 | OD value Mean ([1]; 10 μg/ml, 48 h): 1.149 | OD value 1 ([1]; 10 μg/ml, 48 h): 1.156 | OD value 2 ([1]; 10 μg/ml, 48 h): 1.142 | OD value 3 ([1]; 10 μg/ml, 48 h): 1.15 | OD value Mean ([1]; 30 μg/ml, 48 h): 0.998 | OD value 1 ([1]; 30 μg/ml, 48 h): 1.006 | OD value 2 ([1]; 30 μg/ml, 48 h): 1.007 | OD value 3 ([1]; 30 μg/ml, 48 h): 0.98 | OD value Mean ([1]; 50 μg/ml, 48 h): 0.628 | OD value 1 ([1]; 50 μg/ml, 48 h): 0.630 | OD value 2 ([1]; 50 μg/ml, 48 h): 0.621 | OD value 3 ([1]; 50 μg/ml, 48 h): 0.634 | OD value Mean ([1]; 100 μg/ml, 48 h): 0.658 | OD value 1 ([1]; 100 μg/ml, 48 h): 0.661 | OD value 2 ([1]; 100 μg/ml, 48 h): 0.65 | OD value 3 ([1]; 100 μg/ml, 48 h): 0.664 | cell morphology / growth of pfeiffer cancer cell lines under inverted microscope ([1]; 50-100 μg/ml, 48 h): significant inhibitory effect | inhibition at 5 µg/mL ([1]; Homo sapiens, 5 μg/ml, 48 h, pfeiffer cells, read-out: Inhibition rate (%)): 45.7% | inhibition at 10 µg/mL [1, 4]: 50.6% | inhibition at 30 µg/mL ([1]; Homo sapiens, 30 μg/ml, 48 h, pfeiffer cells, read-out: Inhibition rate (%)): 57.1% | inhibition at 50 µg/mL ([1]; Homo sapiens, 50 μg/ml, 48 h, pfeiffer cells, read-out: Inhibition rate (%)): 73% | inhibition at 100 µg/mL ([1]; Homo sapiens, 100 μg/ml, 48 h, pfeiffer cells, read-out: Inhibition rate (%)): 71.7% | tumor inhibition rate ([1]; concentration 50-100 μg/ml, pfeiffer cells): 71.68-72.97% | inhibitory effect on pfeiffer cancer cells compared with methotrexate ([1]; same dose 10 μg/ml): higher inhibitory effect

CN(Cc1cnc2nc(N)nc(N)c2n1)c1ccc(C(=O)N[C@@H](CCC(=O)O)C(=O)O)cc1 [methotrexate]
Body weight (g) Before administration ([2]; before administration, group later given i.p. 3 mg/kg once every two days): 19.31 ± 0.66 g | Body weight (g) After administration [2, 5]: 18.23 ± 0.79 g | Survival number (mice) [2, 5]: 6 mice | Tumor inhibition rate (%) [2, 5]: 41.14% | deaths ([2]; positive control group, i.p. 3 mg/kg once every two days): 1 | OD value Mean ([1]; 10 μg/ml, 48 h): 1.193 | OD value 1 ([1]; 10 μg/ml, 48 h): 1.202 | OD value 2 ([1]; 10 μg/ml, 48 h): 1.193 | OD value 3 ([1]; 10 μg/ml, 48 h): 1.185 | inhibition at 10 µg/mL [1, 4]: 48.7% | Survival number (mouse) ([3]; 14 days): 6 mouse | Tumor inhibition rate (%) ([3]; 14 days): 41.06% | Tumor weight ([3]; 14 days): 0.79 ± 0.12 g | Weight (g) After treatment ([3]; 14 days): 17.26 ± 0.65 g | deaths ([3]; positive control group): 1
